The results in this text go back to ChEMBL document CHEMBL4610081, “Anti-inflammatory Metabolites from Chaetomium nigricolor” (J Nat Prod, 2020).

In data set [1] the test system is RAW264.7. Description: Antiinflammatory activity against mouse RAW264.7 cells assessed as LPS-induced INOS mRNA expression at 2.5 uM preincubated for 3 hrs followed by LPS-stimulation and measured after 24 hrs by RT-PCR analysis (reference value: 8.2). The class given is functional.
The subject of data set [2] is RAW264.7. Description: Antiinflammatory activity against mouse RAW264.7 cells assessed as reduction in LPS-induced TNF-alpha mRNA expression preincubated for 3 hrs followed by LPS-stimulation and measured after 12 hrs by RT-PCR analysis. Format: functional, cell-based.
For data set [3], the system named is RAW264.7. Kind of data set: Inhibition of LPS-induced ERK phosphorylation in mouse RAW264.7 cell at 2.5 uM preincubated for 3 hrs followed by LPS-stimulation and measured after 1 hr by Western blot analysis (reference value: 6.92). Format: cell-based.
Data set [4] has as its system RAW264.7. Description: Antiinflammatory activity against mouse RAW264.7 cells assessed as reduction in LPS-induced IL-12 mRNA expression preincubated for 3 hrs followed by LPS-stimulation and measured after 12 hrs by RT-PCR analysis. The class given is functional, cell-based.
Data set [5] deals with RAW264.7. Kind of data set: Trans-suppression of NFkappaB in mouse RAW264.7 cells assessed as LPS-induced nuclear-p50 level at 5 uM preincubated for 3 hrs followed by LPS-stimulation and measured after 1 hr by Western blot analysis (reference value: 3.2). The class given is cell-based.
The test system of data set [6] is RAW264.7. Description: Inhibition of LPS-induced ERK protein expression in mouse RAW264.7 cell at 2.5 uM preincubated for 3 hrs followed by LPS-stimulation and measured after 1 hr by Western blot analysis (reference value: 1.13). Format: functional. (In general: A western blot detects proteins with antibodies after separation by electrophoresis.)
For data set [7], the system named is RAW264.7. Kind of data set: Trans-suppression of NFkappaB in mouse RAW264.7 cells assessed as LPS-induced nuclear-p50 level at 10 uM preincubated for 3 hrs followed by LPS-stimulation and measured after 1 hr by Western blot analysis (reference value: 3.2). The class given is cell-based.
Data set [8] relates to RAW264.7. Description: Trans-suppression of NFkappaB in mouse RAW264.7 cells assessed as LPS-induced cytosol-p65 level at 2.5 uM preincubated for 3 hrs followed by LPS-stimulation and measured after 1 hr by Western blot analysis (reference value: 0.09). The class given is cell-based.
Data set [9] deals with RAW264.7. Kind of data set: Inhibition of LPS-induced p38 MAPK protein expression in mouse RAW264.7 cell at 2.5 uM preincubated for 3 hrs followed by LPS-stimulation and measured after 1 hr by Western blot analysis (reference value: 1.1). Format: functional.
The subject of data set [10] is RAW264.7. Description: Inhibition of LPS-induced JNK phosphorylation in mouse RAW264.7 cell at 5 uM preincubated for 3 hrs followed by LPS-stimulation and measured after 1 hr by Western blot analysis (reference value: 8.88). Format: cell-based.
Data set [11] has as its system RAW264.7. Kind of data set: Cytotoxicity against mouse RAW264.7 cells assessed as reduction cell viability at 20 uM by MTT assay. Format: cell-based. The conditions noted are these: raw264.7, 20 µM. For orientation: Tetrazolium dyes change colour on reduction, which living cells bring about.
Data set [12] relates to RAW264.7. Description: Trans-suppression of NFkappaB in mouse RAW264.7 cells assessed as reduction in LPS-induced DNA binding at 2.5 to 10 uM preincubated for 3 hrs followed by LPS-stimulation and measured after 1 hr by TransAM assay. The class given is cell-based.
The test system of data set [13] is RAW264.7. Description: Inhibition of LPS-induced JNK phosphorylation in mouse RAW264.7 cell at 10 uM preincubated for 3 hrs followed by LPS-stimulation and measured after 1 hr by Western blot analysis (reference value: 8.88). The class given is cell-based.
Data set [14] has as its target MAP kinase p38 (Mus musculus) (UniProt P47811+O08911+Q9WUI1+Q9Z1B7). Kind of data set: Inhibition of LPS-induced p38 MAPK phosphorylation in mouse RAW264.7 cell at 10 uM preincubated for 3 hrs followed by LPS-stimulation and measured after 1 hr by Western blot analysis (reference value: 5.59). The class given is cell-based.
For data set [15], the system named is RAW264.7. Kind of data set: Trans-suppression of NFkappaB in mouse RAW264.7 cells assessed as LPS-induced IKB-apha degradation at 5 uM preincubated for 3 hrs followed by LPS-stimulation and measured after 1 hr by Western blot analysis (reference value: 0.29). The class given is cell-based.
Data set [16] has as its system RAW264.7. Description: Inhibition of LPS-induced ERK protein expression in mouse RAW264.7 cell at 5 uM preincubated for 3 hrs followed by LPS-stimulation and measured after 1 hr by Western blot analysis (reference value: 1.13). The class given is functional.
Data set [17] concerns RAW264.7. Kind of data set: Trans-suppression of NFkappaB in mouse RAW264.7 cells assessed as LPS-induced nuclear-p65 level at 10 uM preincubated for 3 hrs followed by LPS-stimulation and measured after 1 hr by Western blot analysis (reference value: 3.3). Format: cell-based.
In data set [18] the test system is RAW264.7. Description: Trans-suppression of NFkappaB in mouse RAW264.7 cells assessed as LPS-induced nuclear-p50 level at 2.5 uM preincubated for 3 hrs followed by LPS-stimulation and measured after 1 hr by Western blot analysis (reference value: 3.2). Format: cell-based.
Data set [19] has as its system RAW264.7. Description: Inhibition of LPS-induced ERK phosphorylation in mouse RAW264.7 cell at 5 uM preincubated for 3 hrs followed by LPS-stimulation and measured after 1 hr by Western blot analysis (reference value: 6.92). The class given is cell-based.
Data set [20] concerns RAW264.7. Kind of data set: Antiinflammatory activity against mouse RAW264.7 cells assessed as LPS-induced COX-2 mRNA expression at 5 uM preincubated for 3 hrs followed by LPS-stimulation and measured after 24 hrs by RT-PCR analysis (reference value: 14.39). The class given is functional.
Data set [21] relates to RAW264.7. Kind of data set: Inhibition of LPS-induced JNK protein expression in mouse RAW264.7 cell at 5 uM preincubated for 3 hrs followed by LPS-stimulation and measured after 1 hr by Western blot analysis (reference value: 1.21). Format: functional.
For data set [22], the system named is RAW264.7. Description: Inhibition of LPS-induced JNK protein expression in mouse RAW264.7 cell at 10 uM preincubated for 3 hrs followed by LPS-stimulation and measured after 1 hr by Western blot analysis (reference value: 1.21). The class given is functional.
Data set [23] relates to RAW264.7. Kind of data set: Trans-suppression of NFkappaB in mouse RAW264.7 cells assessed as LPS-induced IKB-apha phosphorylation at 2.5 uM preincubated for 3 hrs followed by LPS-stimulation and measured after 1 hr by Western blot analysis (reference value: 6.04). The class given is cell-based.

Active and inactive are the calls of the source. The calls are words filed in the database; no cut-off is given here.

As for `COc1cc(OC)c2c(O)c3c(=O)cc(C)oc3c(-c3c(O)cc4cc(O)c5c(=O)cc(C)oc5c4c3OC)c2c1` (atropisomer aS) [ASPERPYRONE A], the “fold change (FC)” value came to 8.48 in data set [1]; 7.21 in [3]; 1.28 in [5]; 1.08 in data set [6]; 0.89 in data set [7]; 0.42 in data set [8]. Also, the “fold change (FC)” value in data set [9] was determined as 1.12; in data set [10], 4.02; in data set [13], 3.08; in [14], 5.66; in [15], 0.68; in data set [16], 1.09. The fold change (FC) in data set [17] was found to be 1.54; in [18], 1.99; in data set [19], 7.31; in [20], 7.56; in [21], 1.16; in data set [22] it was 1.19. Moreover, in [23], the fold change (FC) came to 2.93. Moreover, the Activity result in [2] is “Dose-dependent effect”; in [4] it was “Dose-dependent effect”; in data set [11] it was “Non-Toxic”. For the same compound, the outcome in data set [12] was Active.
